Results from BigSolDB 2.1.

C=C1CCC[C@]2(C)C[C@]3(O)OC(=O)C(C)=C3C[C@@H]12
solubility (mole fraction)
Settings	283.2 K	288.2 K	293.2 K	298.2 K	303.2 K	308.2 K	313.2 K	318.2 K	323.2 K
in diethyl ether	0.00277	0.00375	0.00562	0.00738	0.00939	–	–	–	–
in ethanol	0.00443	0.00547	0.00673	0.00809	0.00966	0.0113	0.0131	0.0151	0.0171
in ethyl acetate	0.0224	0.0228	0.0236	0.0242	0.0252	0.0261	0.0271	0.0282	0.0293
in n-hexane	2.44e-05	4.12e-05	6.39e-05	8.32e-05	0.000113	0.000153	0.000202	0.000272	0.000336
